# In BindingDB's records for doi:10.1016/j.bioorg.2016.03.011 (Beni-Suef University, 2016):
# Molecular target: Epidermal growth factor receptor (Homo sapiens, UniProt P00533)
# Assay: Kinase-Glo Plus Luminescence Kinase Assay
# Procedure: Kinase activity was determined using Kinase-Glo Plus luminescence kinase assay kit according to the manufacturer instructions. The assays depend on the quantitation of the amount of ATP remaining in the solution of kinase reaction.
# Chain of Epidermal growth factor receptor (P00533 whole entry): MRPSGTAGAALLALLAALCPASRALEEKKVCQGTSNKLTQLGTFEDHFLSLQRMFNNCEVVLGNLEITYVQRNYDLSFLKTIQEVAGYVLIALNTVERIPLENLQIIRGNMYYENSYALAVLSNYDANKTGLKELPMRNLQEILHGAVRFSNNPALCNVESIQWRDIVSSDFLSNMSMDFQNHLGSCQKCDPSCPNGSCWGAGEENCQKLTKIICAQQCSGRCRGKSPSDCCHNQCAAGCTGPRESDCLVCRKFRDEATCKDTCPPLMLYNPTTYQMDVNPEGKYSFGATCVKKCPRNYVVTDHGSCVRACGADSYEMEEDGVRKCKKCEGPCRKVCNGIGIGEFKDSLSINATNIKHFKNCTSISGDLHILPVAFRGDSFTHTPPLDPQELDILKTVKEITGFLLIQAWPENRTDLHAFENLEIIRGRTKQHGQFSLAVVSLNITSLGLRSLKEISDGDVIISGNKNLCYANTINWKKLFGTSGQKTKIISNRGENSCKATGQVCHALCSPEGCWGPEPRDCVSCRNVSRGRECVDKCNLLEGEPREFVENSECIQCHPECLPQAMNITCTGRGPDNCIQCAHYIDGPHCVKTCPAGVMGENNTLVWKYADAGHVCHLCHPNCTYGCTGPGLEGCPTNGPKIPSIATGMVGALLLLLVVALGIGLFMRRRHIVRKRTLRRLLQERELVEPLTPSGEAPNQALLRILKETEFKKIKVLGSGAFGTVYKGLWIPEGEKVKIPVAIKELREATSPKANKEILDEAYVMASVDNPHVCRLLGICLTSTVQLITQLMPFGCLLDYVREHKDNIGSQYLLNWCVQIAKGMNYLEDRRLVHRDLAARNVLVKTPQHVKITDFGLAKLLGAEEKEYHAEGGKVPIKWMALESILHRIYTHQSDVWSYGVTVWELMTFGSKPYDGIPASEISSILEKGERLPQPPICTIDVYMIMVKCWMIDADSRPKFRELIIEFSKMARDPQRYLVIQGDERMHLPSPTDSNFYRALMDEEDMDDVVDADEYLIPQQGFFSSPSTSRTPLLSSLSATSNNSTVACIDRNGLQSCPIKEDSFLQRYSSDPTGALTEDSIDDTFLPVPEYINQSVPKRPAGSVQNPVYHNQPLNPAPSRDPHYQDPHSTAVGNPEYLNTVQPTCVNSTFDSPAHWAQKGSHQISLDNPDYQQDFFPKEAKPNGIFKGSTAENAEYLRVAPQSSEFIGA
row,IC50,Structure (SMILES)
1,30 µM,"Cc1cc(OCC(=O)N/N=C/c2ccc(F)cc2)c2c(C)nn(-c3ccccc3)c2n1 [N-(4-fluorobenzylidene)-2-(3,6-dimethyl-1-phenyl-1H-pyrazolo[3,4-d]pyrimidin-4-yloxy)acetohydrazide (12b)]"
2,35.9 µM,"Cc1cc(OCC(=O)N/N=C/c2ccc(C(F)(F)F)cc2)c2c(C)nn(-c3ccccc3)c2n1 [N-(4-Trifluoromethylbenzylidene)-2-(3,6-dimethyl-1-phenyl-1H-pyrazolo[3,4-d]pyrimidin-4-yloxy)acetohydrazide (12f)]"
